# Results as given in US8519128B2, “Pyripyropene derivatives having an ACAT2-inhibiting activity” (The Kitasato Institute, priority 2007, dated 2013).
# Like-named read-outs stand apart in the source and are kept apart here.
# Target: T1, ACAT 2 (Mus musculus, UniProt O88908)
# T1 construct: The source of ACAT 2 enzyme used was a membrane fraction derived from mouse liver microsome; from tissue; host or cells: mouse liver (microsome fraction)
# T1 sequence (O88908 1-525): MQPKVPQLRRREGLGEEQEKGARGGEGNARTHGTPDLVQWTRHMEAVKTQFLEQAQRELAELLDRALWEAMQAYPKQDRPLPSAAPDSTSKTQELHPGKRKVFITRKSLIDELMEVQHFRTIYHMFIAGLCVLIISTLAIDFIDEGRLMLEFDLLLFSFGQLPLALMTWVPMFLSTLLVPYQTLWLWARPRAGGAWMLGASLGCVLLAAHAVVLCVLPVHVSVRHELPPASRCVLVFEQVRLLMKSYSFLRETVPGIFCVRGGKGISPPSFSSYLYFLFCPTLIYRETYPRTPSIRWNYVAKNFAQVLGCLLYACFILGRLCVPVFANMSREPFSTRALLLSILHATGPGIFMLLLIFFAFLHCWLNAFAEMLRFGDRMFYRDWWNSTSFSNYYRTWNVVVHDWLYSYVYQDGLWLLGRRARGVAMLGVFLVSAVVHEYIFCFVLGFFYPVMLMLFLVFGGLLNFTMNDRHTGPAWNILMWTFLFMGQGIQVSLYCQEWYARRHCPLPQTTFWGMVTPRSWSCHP
# Test: ACAT-inhibiting activity, mouse liver microsome membrane fraction, [14C]oleoyl-CoA
# Format: biochemical
# Details: for Specific activity: (inhibitory activity of test compound)/(inhibitory activity of pyripyropene A): relative to pyripyropene A
# Procedure: The source of ACAT 2 enzyme used was a membrane fraction derived from mouse liver microsome. Mouse liver was homogenized in buffer solution A (50 mM Tris-HCl (pH 7.8), 1 mM ethylenediamine tetraacetate, and 1 mM phenylmethanesulfonyl fluoride) using a homogenizer of the Potter type (Tokyo-RIKO). The homogenate was centrifuged at 12000×g, and the supernatant was ultracentrifuged at 100000×g. The sediment was taken as a microsome fraction, and this fraction was adjusted to have a protein concentration of 5 mg/ml using buffer solution A.
# The chloroform layer was evaporated to dryness and was used to spot a thin layer chromatography plate (silica gel plate, Merck, 0.5 mm thickness). Elution for separation was carried out using a solvent of hexane/diethyl ether/acetic acid (70:30:1, v/v).
# [1] = mouse liver microsome, 5 minutes at 37° C.
Compound,IC50 [1],Specific activity: (inhibitory activity of test compound)/(inhibitory activity of pyripyropene A),IC50
"CC12COC(c3ccccc3)O[C@H]1CC[C@@]1(C)C2C[C@H](OC(=O)c2cccc(F)c2)[C@@]2(C)Oc3cc(-c4cccnc4)oc(=O)c3[C@H](O)C12 (some centres unmarked) [PRD 047, 1,11-O-benzylidene-7-O-m-fluorobenzoyl-1,7,11-trideacetylpyripyropene A]",0.01 to 0.1 µM,+++ (50 > specific activity > 10),
"CC12COC(c3ccccc3)O[C@H]1CC[C@@]1(C)C2C[C@H](OC(=O)c2ccc(F)cc2)[C@@]2(C)Oc3cc(-c4cccnc4)oc(=O)c3[C@H](O)C12 (some centres unmarked) [PRD 048, 1,11-O-benzylidene-7-O-p-fluorobenzoyl-1,7,11-trideacetylpyripyropene A]",0.01 to 0.1 µM,++ (10 > specific activity > 5),
"CC12COC(c3ccccc3)O[C@H]1CC[C@@]1(C)C2C[C@H](OC(=O)c2ccccc2Cl)[C@@]2(C)Oc3cc(-c4cccnc4)oc(=O)c3[C@H](O)C12 (some centres unmarked) [PRD 049, 1,11-O-benzylidene-7-O-o-chlorobenzoyl-1,7,11-trideacetylpyripyropene A]",0.01 to 0.1 µM,+++ (50 > specific activity > 10),
"CC12COC(c3ccccc3)O[C@H]1CC[C@@]1(C)C2C[C@H](OC(=O)c2cccc(Cl)c2)[C@@]2(C)Oc3cc(-c4cccnc4)oc(=O)c3[C@H](O)C12 (some centres unmarked) [PRD 050, 1,11-O-benzylidene-7-O-m-chlorobenzoyl-1,7,11-trideacetylpyripyropene A]",0.01 to 0.1 µM,+++ (50 > specific activity > 10),
"CC12COC(c3ccccc3)O[C@H]1CC[C@@]1(C)C2C[C@H](OC(=O)c2ccc(Cl)cc2)[C@@]2(C)Oc3cc(-c4cccnc4)oc(=O)c3[C@H](O)C12 (some centres unmarked) [PRD 051, 1,11-O-benzylidene-7-O-p-chlorobenzoyl-1,7,11-trideacetylpyripyropene A]",0.01 to 0.1 µM,++ (10 > specific activity > 5),
"CC12COC(c3ccccc3)O[C@H]1CC[C@@]1(C)C2C[C@H](OC(=O)c2cccc(Br)c2)[C@@]2(C)Oc3cc(-c4cccnc4)oc(=O)c3[C@H](O)C12 (some centres unmarked) [PRD 052, 1,11-O-benzylidene-7-O-m-bromobenzoyl-1,7,11-trideacetylpyripyropene A]",0.01 to 0.1 µM,++ (10 > specific activity > 5),
"CC12COC(c3ccccc3)O[C@H]1CC[C@@]1(C)C2C[C@H](OC(=O)c2ccc(Br)cc2)[C@@]2(C)Oc3cc(-c4cccnc4)oc(=O)c3[C@H](O)C12 (some centres unmarked) [PRD 053, 1,11-O-benzylidene-7-O-p-bromobenzoyl-1,7,11-trideacetylpyripyropene A]",0.01 to 0.1 µM,+ (5 > specific activity > 1),
"CC12COC(c3ccccc3)O[C@H]1CC[C@@]1(C)C2C[C@H](OC(=O)c2ccc(C=O)cc2)[C@@]2(C)Oc3cc(-c4cccnc4)oc(=O)c3[C@H](O)C12 (some centres unmarked) [PRD 054, 1,11-O-benzylidene-7-O-p-formylbenzoyl-1,7,11-trideacetylpyripyropene A]",0.01 to 0.1 µM,+ (5 > specific activity > 1),
"COCCOCO[C@H]1CC2C(C)(COC(C)=O)[C@@H](OC(C)=O)CC[C@]2(C)C2[C@@H](O)c3c(cc(-c4cccnc4)oc3=O)O[C@@]21C (some centres unmarked) [PRD 055, 7-deacetyl-7-O-methoxyethoxymethylpyripyropene A]",0.01 to 0.1 µM,+++ (50 > specific activity > 10),
"CC(=O)OCC1(C)C2C[C@H](OC(=O)Oc3ccccc3)[C@@]3(C)Oc4cc(-c5cccnc5)oc(=O)c4[C@H](O)C3[C@@]2(C)CC[C@@H]1OC(C)=O (some centres unmarked) [PRD 057, 7-deacetyl-7-O-phenoxycarbonylpyripyropene A]",0.01 to 0.1 µM,+ (5 > specific activity > 1),
"CC(=O)OCC1(C)C2C[C@H](OC(=O)Oc3ccc(Cl)cc3)[C@@]3(C)Oc4cc(-c5cccnc5)oc(=O)c4[C@H](O)C3[C@@]2(C)CC[C@@H]1OC(C)=O (some centres unmarked) [PRD 058, 7-O-p-chlorophenoxycarbonyl-7-deacetylpyripyropene A]",0.01 to 0.1 µM,+++ (50 > specific activity > 10),
"CC12CO[Si](C(C)(C)C)(C(C)(C)C)O[C@H]1CC[C@@]1(C)C2C[C@H](OC(=O)c2ccc(C#N)cc2)[C@@]2(C)Oc3cc(-c4cccnc4)oc(=O)c3[C@H](O)C12 (some centres unmarked) [PRD 059, 7-O-p-cyanobenzoyl-1,11-O-(di-tert-butylsilylene)-1,7,11-trideacetylpyripyropene A]",0.1 to 1 µM,+ (5 > specific activity > 1),
"CC12CO[Si](C(C)(C)C)(C(C)(C)C)O[C@H]1CC[C@@]1(C)C2C[C@H](OC(=O)c2ccc(C#N)cc2)[C@@]2(C)Oc3cc(-c4cccnc4)oc(=O)c3[C@H](OC(=O)c3ccc(C#N)cc3)C12 (some centres unmarked) [PRD 060, 7,13-di-(O-p-cyanobenzoyl)-1,11-O-(di-tert-butylsilylene)-1,7,11-trideacetylpyripyropene A]",0.1 to 1 µM,+ (5 > specific activity > 1),
"CC(=O)OCC1(C)C2C=C[C@@]3(C)Oc4cc(-c5cccnc5)oc(=O)c4[C@H](O)C3[C@@]2(C)CC[C@@H]1OC(C)=O (some centres unmarked) [PRD 061, 7,8-olefinpyripyropene A]",,+ (5 > specific activity > 1),0.1 to 1 µM
"CC(=O)OCC1(C)C2C[C@@H](N=[N+]=[N-])[C@@]3(C)Oc4cc(-c5cccnc5)oc(=O)c4[C@H](O)C3[C@@]2(C)CC[C@@H]1OC(C)=O (stereo partly drawn) [PRD 062, 7-(R)-azide-7-(S)-deacetylpyripyropene A]",0.1 to 1 µM,+ (5 > specific activity > 1),
"CC(=O)OCC1(C)C2C[C@@H](I)[C@@]3(C)Oc4cc(-c5cccnc5)oc(=O)c4[C@H](O)C3[C@@]2(C)CC[C@@H]1OC(C)=O (stereo partly drawn) [PRD 064, 7-(R)-iodo-7-(S)-deacetylpyripyropene A]",0.1 to 1 µM,+ (5 > specific activity > 1),
"CC(=O)OCC1(C)C2C[C@@H](Cl)[C@@]3(C)Oc4cc(-c5cccnc5)oc(=O)c4[C@H](O)C3[C@@]2(C)CC[C@@H]1OC(C)=O (stereo partly drawn) [PRD 065, 7-(R)-chloro-7-(S)-deacetylpyripyropene A]",,+ (5 > specific activity > 1),0.1 to 1 µM
"COc1ccc(-n2nnnc2S[C@@H]2CC3C(C)(COC(C)=O)[C@@H](OC(C)=O)CC[C@]3(C)C3[C@@H](O)c4c(cc(-c5cccnc5)oc4=O)O[C@@]32C)cc1 (stereo partly drawn) [PRD 066, 7-(R)-{sulfinyl-5-(p-methoxyphenyl)tetrazol-1-yl}-7-(S)-deacetylpyripyropene A]",0.1 to 1 µM,+ (5 > specific activity > 1),
"CC(=O)OCC1(C)C2C[C@H](OC(=O)C3CCCC3)[C@@]3(C)Oc4cc(-c5cccnc5)oc(=O)c4[C@H](O)C3[C@@]2(C)CC[C@@H]1OC(C)=O (some centres unmarked) [PRD 075, 7-O-cyclopentanecarboxyl-7-deacetylpyripyropene A]",,++ (10 > specific activity > 5),0.01 to 0.1 µM
